Our source for the MIC values is ChEMBL document CHEMBL1142160, “Overexpression and initial characterization of the chromosomal aminoglycoside 3'-O-phosphotransferase APH(3')-IIb from Pseudomonas aeruginosa” (2007).

≈ marks a conversion by molar mass, not a printed value.

What all share (assay type): functional
The test system of assay [1] is Escherichia coli. The experiment in a line: Antibacterial activity against Escherichia coli BL21(DE3).
Assay [2] has as its system Escherichia coli. The experiment in a line: Antibacterial activity against Escherichia coli BL21(DE3) expressing Pseudomonas aeruginosa APH(3')-2b.
The test system of assay [3] is Pseudomonas aeruginosa. The experiment in a line: Antibacterial activity against Pseudomonas aeruginosa ATCC 27853.

For `NC[C@H]1O[C@H](O[C@H]2[C@H](O[C@@H]3O[C@H](CO)[C@@H](O)[C@H]3O)[C@@H](O)[C@H](N)C[C@@H]2N)[C@H](N)[C@@H](O)[C@@H]1O` [RIBOSTAMYCIN], the minimal inhibitory concentration (MIC) (as a rule, the lowest concentration that inhibits growth of the organism) in assay [1] is 12 µg/mL (≈ 26.4 µM); in assay [2], 768 µg/mL (≈ 1690 µM); in assay [3], 384 µg/mL (≈ 845 µM).
Regarding `NC[C@@H]1O[C@H](O[C@H]2[C@@H](O)[C@H](O[C@@H]3[C@@H](O)[C@H](N)C[C@H](N)[C@H]3O[C@H]3O[C@H](CN)[C@@H](O)[C@H](O)[C@H]3N)O[C@@H]2CO)[C@H](N)[C@@H](O)[C@@H]1O` [FRAMYCETIN], the MIC in assay [1] was determined as 12 µg/mL (≈ 19.5 µM); in assay [2], 96 µg/mL (≈ 156 µM); in assay [3], 128 µg/mL (≈ 208 µM).
The like results for `NC[C@H]1O[C@H](O[C@H]2[C@H](O)[C@@H](O[C@H]3O[C@H](CO)[C@@H](O)[C@H](N)[C@H]3O)[C@H](N)C[C@@H]2N)[C@H](N)C[C@@H]1O` [TOBRAMYCIN] were, in that order, 6 µg/mL (≈ 12.8 µM), 6 µg/mL (≈ 12.8 µM) and 1 µg/mL (≈ 2.14 µM).
The like results for `NC[C@@H]1O[C@@H](O[C@H]2[C@H](O)[C@@H](O[C@H]3O[C@H](CO)[C@@H](O)[C@H](N)[C@H]3O)[C@H](N)C[C@@H]2N)[C@@H](O)[C@H](O)[C@H]1O` [KANAMYCIN A] were, in that order, 12 µg/mL (≈ 24.8 µM), 768 µg/mL (≈ 1590 µM) and 256 µg/mL (≈ 528 µM).
`NCC[C@H](O)C(=O)N[C@@H]1C[C@H](N)[C@@H](O[C@H]2O[C@H](CN)[C@@H](O)[C@H](O)[C@H]2O)[C@H](O)[C@H]1O[C@H]1O[C@H](CO)[C@@H](O)[C@H](N)[C@H]1O` [AMIKACIN]: the MIC in assay [1] is 12 µg/mL (≈ 20.5 µM); in assay [2], 12 µg/mL (≈ 20.5 µM); in assay [3], 3 µg/mL (≈ 5.12 µM).
Take `NC[C@H]1O[C@H](O[C@H]2[C@H](O)[C@@H](O)[C@H](N)C[C@@H]2N)[C@H](N)[C@@H](O)[C@@H]1O` [NEAMINE]: the minimum inhibitory concentration (MIC) in assay [1] was found to be 96 µg/mL (≈ 298 µM); in assay [2], 1540 µg/mL (≈ 4760 µM); in assay [3], 512 µg/mL (≈ 1590 µM).
